Experimental data published in article PMC9779571, “Guanidine Derivatives Containing the Chalcone Skeleton Are Potent Antiproliferative Compounds against Human Leukemia Cells” (International Journal of Molecular Sciences, 2022).
Where “and” joins values, the source holds several entries; their conditions need not be identical. Equal values may be shown once.

Tests used:
[1] = tested on: MOLT-3 cells; experiment: MTT cytotoxicity assay, MOLT-3; type: cell-based, human; conditions: Homo sapiens, MOLT-3, 72 h, means ± SEM
From the text: (§1) U-937, HL-60, MOLT-3, NALM-6, and SK-MEL-1 cells were from DSMZ (German Collection of Microorganisms and Cell Cultures, Braunschweig, Germany). U-937/Bcl-2 cells were kindly provided by Dr. Jacqueline Bréard (INSERM U749, Faculté de Pharmacie Paris-Sud, Châtenay-Malabry, France). The U-937 is a pro-monocytic, human promyelocytic leukemia cell line that was isolated from a histiocytic lymphoma. HL-60 is a human acute myeloid leukemia cell line. MOLT-3 is a human acute lymphoblastic leukemia cell line. NALM-6 is a human B cell precursor leukemia. SK-MEL-1 is a human melanoma cell line growing singly or in clumps (occasional giant, polynucleated cell) in suspension. Cells were cultured in RPMI 1640 medium containing 10% (v/v) heat-inactivated fetal bovine serum, 100 μg/mL streptomycin, and 100 U/mL penicillin, incubated at 37 °C in a humidified atmosphere containing 5% CO2 as described. The doubling times of the cell lines were 24 h in HL-60, 30 h in U-937, U-937/Bcl-2, 40 h in MOLT-3 and NALM-6, and several days in SK-MEL-1 cells. Human peripheral blood mononuclear cells (PBMC) were isolated from heparin-anticoagulated blood of healthy volunteers by centrifugation with Ficoll-Paque Plus (GE Healthcare Bio-Sciences AB, Uppsala, Sweden). PBMC were also stimulated with phytohemagglutinin (2 µg/mL) for 48 h before the experimental treatment. The trypan blue exclusion method was used for counting the cells by a hemocytometer with 95% viability in all the experiments. Compounds were dissolved in dimethyl sulfoxide (DMSO) and kept under dark conditions at 25 °C. […] The cytotoxicity of the synthetic compounds was evaluated by colorimetric 3-(4,5-dimethyl-2-thiazolyl-)-2,5-diphenyl-2H-tetrazolium bromide (MTT) assay as previously described. Briefly, cells (5000 per well) were incubated with increasing concentrations of compounds for 72 h into a 96-well plate. Then, the supernatants were removed and 0.5 mg/mL MTT was added and incubated for 4 h at 37 °C. Sodium dodecyl sulfate (10% w/v) in 0.05 M HCl was added to solubilize the reaction products and the absorbance was measured at 570 nm with a reference wavelength of […] using an ELISA reader (Bio-Rad, Hercules, CA, USA). The IC50 values (concentrations inducing a 50% inhibition of cell viability) were determined graphically for each experiment by a nonlinear regression using the curve fitting routine implemented within the software Prism 5.0 (GraphPad, La Jolla, CA, USA).

[2] = tested on: SK-MEL-1 cells; experiment: MTT cytotoxicity assay, SK-MEL-1; type: cell-based, human; conditions: Homo sapiens, SK-MEL-1, 72 h, means ± SEM
From the text: as §1

[3] = tested on: HL-60 cells; experiment: MTT cytotoxicity assay, HL-60; type: cell-based; conditions: Homo sapiens, HL-60, 72 h, means ± SEM
From the text: as §1

[4] = tested on: NALM-6 cells; experiment: MTT cytotoxicity assay, NALM-6; type: cell-based, human; conditions: for IC50: Homo sapiens, NALM-6, 72 h, 72 h, MTT, means ± SEM
From the text: as §1

[5] = tested on: U-937/Bcl-2 cells; experiment: MTT cytotoxicity assay, U-937/Bcl-2; type: cell-based, human; conditions: Homo sapiens, U-937, 72 h, means ± SEM
From the text: as §1

[6] = tested on: U-937 cells; experiment: MTT cytotoxicity assay, U-937; type: cell-based; conditions: Homo sapiens, U-937, 72 h, means ± SEM
From the text: as §1

[7] = tested on: U-937 leukemia cells; experiment: Cell cycle and sub-G1 analysis by flow cytometry (propidium iodide); type: cell-based, human; conditions: 24 h; for fold increase of sub-G1 cells over control / %G1 / %G2-M / %S / %Sub-G1: 10 µM; for fold increase of sub-G1 cells over control: U-937; for %G1 / %G2-M / %S / %Sub-G1: U-937, means ± S.E.; for cell cycle arrest: U-937, 10 µM
Procedure: Cells (2.5 × 10^5) were centrifuged for 10 min at 500× g, washed with cold PBS, fixed with ice-cold 75% ethanol and stored at −20 °C overnight. Samples were then centrifuged at 500× g for 10 min at 4 °C, washed with PBS, resuspended in 200 μL of PBS containing 100 μg/mL RNase and 50 μg/mL propidium iodide and incubated for 1 h in the dark. The DNA content was analyzed by flow cytometry with a BD FACSVerse^TM cytometer (BD Biosciences, San Jose, CA, USA). Apoptosis was also evaluated by flow cytometric analysis of double-staining annexin V-FITC and propidium iodide cells as previously described.

[8] = tested on: six human cancer cell lines; experiment: MTT cytotoxicity assay, all cell lines assayed (summary statements); type: cell-based; conditions: 72 h, MTT
From the text: U-937, HL-60, MOLT-3, NALM-6, and SK-MEL-1 cells were from DSMZ (German Collection of Microorganisms and Cell Cultures, Braunschweig, Germany). U-937/Bcl-2 cells were kindly provided by Dr. Jacqueline Bréard (INSERM U749, Faculté de Pharmacie Paris-Sud, Châtenay-Malabry, France). The U-937 is a pro-monocytic, human promyelocytic leukemia cell line that was isolated from a histiocytic lymphoma. HL-60 is a human acute myeloid leukemia cell line. MOLT-3 is a human acute lymphoblastic leukemia cell line. NALM-6 is a human B cell precursor leukemia. SK-MEL-1 is a human melanoma cell line growing singly or in clumps (occasional giant, polynucleated cell) in suspension. Cells were cultured in RPMI 1640 medium containing 10% (v/v) heat-inactivated fetal bovine serum, 100 μg/mL streptomycin, and 100 U/mL penicillin, incubated at 37 °C in a humidified atmosphere containing 5% CO2 as described. […] The cytotoxicity of the synthetic compounds was evaluated by colorimetric 3-(4,5-dimethyl-2-thiazolyl-)-2,5-diphenyl-2H-tetrazolium bromide (MTT) assay as previously described. […] Sodium dodecyl sulfate (10% w/v) in 0.05 M HCl was added to solubilize the reaction products and the absorbance was measured at 570 nm with a reference wavelength of […] using an ELISA reader (Bio-Rad, Hercules, CA, USA). […]

Compound `[N-]=[N+]=Nc1ccc(/C=C/C(=O)c2c(O)cccc2OCc2ccccc2)cc1` [Compound 3] has an IC50 [1] of 7.4 ± 0.4 µM, an IC50 [2] greater than 30 µM and an IC50 [3] greater than 30 µM. For the same compound, the IC50 [4] was 11.6 ± 1.6 µM, the IC50 [5] was greater than 30 µM and the IC50 [6] was greater than 30 µM.
`Cc1ccc(S(=O)(=O)NC(=Nc2ccc(/C=C/C(=O)c3c(O)cccc3OCc3ccccc3)cc2)NC(C)C)cc1` [Compound 6a] showed an IC50 [1] of 2.9 ± 1.1 µM, an IC50 [2] greater than 30 µM and an IC50 [3] of 3.7 ± 1.6 µM. The IC50 [4] was 2.9 ± 0.5 µM, the IC50 [5] was 2.9 ± 0.2 µM and the IC50 [6] was 11.4 ± 6.5 µM.
Compound `Cc1ccc(S(=O)(=O)NC(=Nc2ccc(/C=C/C(=O)c3c(O)cccc3OCc3ccccc3)cc2)N(C(C)C)C(C)C)cc1` [Compound 6b] has an IC50 [1] of 2 ± 0.7 µM, an IC50 [2] greater than 30 µM and an IC50 [3] of 20.5 ± 9.5 µM. The IC50 [4] was 27 ± 0.8 µM, the IC50 [5] was 11.7 ± 7 µM and the IC50 [6] was 18.5 ± 9.6 µM.
`Cc1ccc(S(=O)(=O)NC(=Nc2ccc(/C=C/C(=O)c3c(O)cccc3OCc3ccccc3)cc2)N(C)c2ccccc2)cc1` [Compound 6c] showed an IC50 [1] of 2.5 ± 0.2 µM, an IC50 [2] greater than 30 µM and an IC50 [3] of 4.2 ± 0.5 µM. For the same compound, the IC50 [4] was 9.9 ± 3.1 µM, the IC50 [5] was 4.2 ± 1.2 µM and the “fold increase of sub-G1 cells over control” value [7] was ~ 10 fold. For the same compound, the “%G1” value [7] was 37.4 ± 0.3 %, the “%G2-M” value [7] was 11.4 ± 0.4% and the “%S” value [7] was 27.0 ± 0.7%. The “%Sub-G1” value [7] was 23.5% and 23.5 ± 1.2 %, the cell cycle arrest [7] was “not caused by a significant cell cycle arrest in any phase” and the IC50 [6] was 9.5 ± 5.3 µM.
With `Cc1ccc(S(=O)(=O)NC(=Nc2ccc(/C=C/C(=O)c3c(O)cccc3OCc3ccccc3)cc2)N2CCCCC2)cc1` [Compound 6d] the IC50 [1] was 3.3 ± 0.6 µM, the IC50 [2] was greater than 30 µM and the IC50 [3] was 28.5 ± 14.3 µM. The IC50 [4] was 6.6 ± 1.2 µM, the IC50 [5] was 24.6 ± 5.4 µM and the IC50 [6] was greater than 30 µM.
`Cc1ccc(S(=O)(=O)NC(=Nc2ccc(/C=C/C(=O)c3c(O)cccc3OCc3ccccc3)cc2)N2CCOCC2)cc1` [Compound 6e] gave an IC50 [1] of 3.2 ± 1.5 µM, an IC50 [2] of 14.3 ± 5.7 µM and an IC50 [3] of 3.8 ± 1.1 µM. The IC50 [4] was 3.1 ± 0.5 µM, the IC50 [5] was 2.3 ± 0.9 µM and the “fold increase of sub-G1 cells over control” value [7] was ~ 5 fold. For the same compound, the “%G1” value [7] was 36.5 ± 2.3 %, the “%G2-M” value [7] was 27% and 27.3 ± 2.0 % and the “%S” value [7] was 23.6 ± 0.5 %. The “%Sub-G1” value [7] was 11.9% and 11.9 ± 0.2 %, the cell cycle arrest [7] was “induced an arrest at the G2-M phase” and the IC50 [6] was 5.4 ± 2.1 µM.
With `CCCCCCCCCCCCCCCCCCNC(=Nc1ccc(/C=C/C(=O)c2c(O)cccc2OCc2ccccc2)cc1)NS(=O)(=O)c1ccc(C)cc1` [Compound 6g] the IC50 [1] was greater than 30 µM, the IC50 [2] was greater than 30 µM and the IC50 [3] was greater than 30 µM. The IC50 [4] was greater than 30 µM, the IC50 [5] was greater than 30 µM and the “cytotoxicity against the cancer cell lines assayed” value [8] was “not cytotoxic”. It also gave an IC50 [6] greater than 30 µM.
`CC(C)N(/C(=N/c1ccc(/C=C/C(=O)c2c(O)cccc2OCc2ccccc2)cc1)Nc1ccccc1)C(C)C` [Compound 6h] showed an IC50 [1] of 4.3 ± 0.5 µM, an IC50 [2] of 5.2 ± 1 µM and an IC50 [3] of 5.2 ± 0.9 µM. The IC50 [4] was 5.4 ± 0.2 µM, the “increase in cytotoxicity on substitution of p-tosyl-sulfonyl group (6b) by phenyl group” value ([4]; NALM-6, IC50 ratio 6b vs 6h) was “five-fold” and the IC50 [5] was 14 ± 6.6 µM. For the same compound, the “%G1” value [7] was 53.7 ± 0.4%, the “%G2-M” value [7] was 9.2 ± 0.5 % and the “%S” value [7] was 29.5 ± 0.3%. For the same compound, the “%Sub-G1” value [7] was 7.2 ± 1.1 %, the cell cycle arrest [7] was “not caused by a significant cell cycle arrest in any phase” and the IC50 [6] was 10.6 ± 2.6 µM.
For `O=C(/C=C/c1ccc(N=C(Nc2ccccc2)N2CCOCC2)cc1)c1c(O)cccc1OCc1ccccc1` [Compound 6j], the IC50 [1] was 1.8 ± 0.5 µM, the IC50 [2] was 5.4 ± 0.8 µM and the IC50 [3] was 6.2 ± 1.7 µM. For the same compound, the IC50 [4] was 4.1 ± 0.5 µM, the IC50 [5] was 11.7 ± 3.4 µM and the “%G1” value [7] was 51.3 ± 1.1%. For the same compound, the “%G2-M” value [7] was 11.5 ± 0.1%, the “%S” value [7] was 32.0 ± 0.4% and the “%Sub-G1” value [7] was 4.7 ± 0.6%. For the same compound, the IC50 [6] was 8.6 ± 1.1 µM.
`CN1CCN(C(=Nc2ccc(/C=C/C(=O)c3c(O)cccc3OCc3ccccc3)cc2)Nc2ccccc2)CC1` [Compound 6k] was tested, and the IC50 [1] was 21.7 ± 6.5 µM, the IC50 [2] was greater than 30 µM and the IC50 [3] was 11.4 ± 5.5 µM. The IC50 [4] was 24.8 ± 3.3 µM, the IC50 [5] was 14 ± 5.1 µM and the IC50 [6] was 14 ± 1.1 µM.
For `COc1cccc2c1C(=O)c1c(O)c3c(c(O)c1C2=O)C[C@@](O)(C(=O)CO)C[C@@H]3O[C@H]1C[C@H](N)[C@H](O)[C@H](C)O1` [Doxorubicin, reference compound], the IC50 [2] was 0.3 ± 0.1 µM and the IC50 [6] was 0.1 µM.
`COc1cc([C@@H]2c3cc4c(cc3[C@@H](O[C@@H]3O[C@@H]5CO[C@@H](C)O[C@H]5[C@H](O)[C@H]3O)[C@H]3COC(=O)[C@H]23)OCO4)cc(OC)c1O` [Etoposide, reference compound] gave an IC50 [1] of 0.2 ± 0.1 µM, an IC50 [2] of 9 ± 3 µM and an IC50 [3] of 0.6 ± 0.2 µM. It also gave an IC50 [6] of 1.8 ± 0.2 µM.
